One block for each compound: values may come before it.
Target: T1, VEGF (human recombinant VEGFA165); VEGF‐induced VEGFR‐2 activation in HUVECs (Homo sapiens, UniProt P15692)
T1 construct: purchased R&D Systems, Abingdon, UK
T1 sequence (P15692 1-191 isoform P15692-4): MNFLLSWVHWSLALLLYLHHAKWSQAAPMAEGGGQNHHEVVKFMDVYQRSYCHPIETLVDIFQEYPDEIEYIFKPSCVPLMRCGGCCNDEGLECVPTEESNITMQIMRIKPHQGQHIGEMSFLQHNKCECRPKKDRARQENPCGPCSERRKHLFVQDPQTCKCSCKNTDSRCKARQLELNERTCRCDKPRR
Experiment: Inhibition of VEGF‐induced VEGFR‐2 phosphorylation in HUVECs after pre‐incubating VEGF with polyphenol (Phospho‐VEGFR‐2 Tyr1175 ELISA);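 also: sandwich ELISA of VEGFR-2 phosphorylated at Tyr1175 in lysates of confluent HUVECs, with VEGF alone and DMSO vehicle (≤0.1%) as control incubations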
Type: cell-based
Conditions: for Inhibition (%): HUVECs; for IC50 (μM) / IC50: VEGF 25 ng/mL pre‐incubated 5 min with polyphenol, then HUVECs 5 min, phospho‐VEGFR‐2 ELISA, 95% confidence intervals in parentheses

Structure (SMILES): O=c1c(O)c(-c2ccccc2)oc2ccccc12 [3‐hydroxyflavone]
- Inhibition (%) (at 100 μM polyphenol): 52.8 (100 μM) %

Structure (SMILES): C[C@@H]1O[C@@H](Oc2c(-c3ccc(O)c(O)c3)oc3cc(O)cc(O)c3c2=O)[C@H](O)[C@H](O)[C@H]1O [Quercitrin]
- Inhibition (%) (at 50 μM polyphenol): Ineffective
- Inhibition (%) (at 50 μM polyphenol, listed as quercitrin): completely ineffective

Structure (SMILES): O=c1cc(-c2ccccc2)oc2cc(O)cc(O)c12 [Chrysin]
- Inhibition (%) (at 100 μM polyphenol): 58.6 (100 μM) %

Structure (SMILES): COC(=O)c1cc(O)c(O)c(O)c1 [Methyl gallate]
- Inhibition (%) (at 100 μM polyphenol): Ineffective (100 μM)

Structure (SMILES): O=c1c(O)c(-c2ccc(O)c(O)c2)oc2cc(O)c(O)c(O)c12 [Quercetagetin]
- IC50 (μM): 0.096 (0.083–0.109) μM
- fold more potent VEGF inhibitor than quercetin (ratio of IC50 values): sevenfold

Structure (SMILES): O=C(/C=C/c1ccc(O)c(O)c1)O[C@@H]1C[C@](O)(C(=O)O)C[C@@H](O)[C@H]1O [Chlorogenic acid]
- Inhibition (%) (at 50 μM polyphenol): Ineffective

Structure (SMILES): O=C(O)/C=C/c1ccc(O)c(O)c1 [Caffeic acid]
- Inhibition (%) (at 50 μM polyphenol): Ineffective

Structure (SMILES): O=c1c(O)c(-c2cc(O)c(O)c(O)c2)oc2cc(O)cc(O)c12 [Myricetin]
- IC50 (μM): 0.121(0.102–0.144) μM
- fold lower IC50 than EGC (ratio of IC50 values): > 300 fold

Structure (SMILES): COc1ccc(-c2cc(=O)c3c(OC)c(OC)c(OC)cc3o2)cc1OC [Sinensetin]
- Inhibition (%) (at 100 μM polyphenol): Ineffective (100 μM)
- Inhibition (%) (at 100 μM polyphenol, listed as sinensetin): inhefective

Structure (SMILES): C[C@@H]1O[C@@H](OC[C@H]2O[C@@H](Oc3c(-c4ccc(O)c(O)c4)oc4cc(O)cc(O)c4c3=O)[C@H](O)[C@@H](O)[C@@H]2O)[C@H](O)[C@H](O)[C@H]1O [Rutin]
- Inhibition (%) (at 50 μM polyphenol): Ineffective
- Inhibition (%) (at 50 μM polyphenol, listed as rutin): completely ineffective

Structure (SMILES): O=c1c(O)c(-c2ccccc2)oc2cc(O)cc(O)c12 [Galangin]
- Inhibition (%) (at 50 μM polyphenol): 85%

Structure (SMILES): Oc1cc(O)c2c(c1)O[C@H](c1cc(O)c(O)c(O)c1)[C@H](O)C2 [EGC, epigallocatechin]
- IC50 (μM): 42.9 (36.96–49.97) μM

Structure (SMILES): O=C1C[C@@H](c2ccc(O)c(O)c2)Oc2cc(O)cc(O)c21 [Eriodictyol]
- Inhibition (%) (at 50 μM polyphenol): 20%

Structure (SMILES): O=c1cc(-c2ccccc2)oc2ccccc12 [Flavone]
- Inhibition (%) (at 100 μM polyphenol): Ineffective (100 μM)
- Inhibition (%) (at 100 μM polyphenol, listed as flavone): ineffective

Structure (SMILES): OC[C@H]1O[C@@H](Oc2cc(O)cc(/C=C/c3ccc(O)cc3)c2)[C@H](O)[C@@H](O)[C@@H]1O [Piceid]
- Inhibition (%) (at 50 μM polyphenol): 28%

Structure (SMILES): O=c1c(O)c(-c2ccc(O)cc2O)oc2cc(O)cc(O)c12 [Morin]
- IC50 (μM): 1.482 (1.357–1.618) μM
- fold higher IC50 than quercetin (ratio of IC50 values): about 2 fold

Structure (SMILES): O=C(O[C@@H]1Cc2c(O)cc(O)cc2O[C@@H]1c1cc(O)c(O)c(O)c1)c1cc(O)c(O)c(O)c1 [EGCG, epigallocatechin gallate]
- IC50 (μM): 0.088 (0.078–0.100) μM
- fold lower IC50 than ECG (ratio of IC50 values): 2 fold

Structure (SMILES): COc1cc(-c2oc3cc(O)cc(O)c3c(=O)c2O)ccc1O [Isorhamnetin]
- IC50 (μM): 9.053 (7.676–10.68) μM
- fold higher IC50 than quercetin (ratio of IC50 values): 12 fold

Structure (SMILES): O=C1C[C@@H](c2ccc(O)cc2)Oc2cc(O)cc(O)c21 [Naringenin]
- Inhibition (%) (at 100 μM polyphenol): 88.5 (100 μM) %

Structure (SMILES): O=C1c2ccc(O)cc2O[C@H](c2cc(O)c(O)c(O)c2)[C@H]1O [(+)‐Dihydrorobinetin]
- Inhibition (%) (at 50 μM polyphenol): 66%

Structure (SMILES): O=c1c(O)c(-c2ccc(O)c(O)c2)oc2cc(O)cc(O)c12 [Quercetin]
- IC50 (μM): 0.754 (0.674–0.842) μM
- IC50 (listed as quercetin): 0.75 µM
- fold lower IC50 compared with (+)‐catechin (ratio of IC50 values): > 250 fold
- fold lower IC50 compared with luteolin (ratio of IC50 values): 10 fold

Structure (SMILES): O=C(O)c1cc(O)c(O)c(O)c1 [Gallic acid]
- Inhibition (%) (at 50 μM polyphenol): 32%

Structure (SMILES): O=C(CCc1ccc(O)cc1)c1c(O)cc(O)cc1O[C@@H]1O[C@H](CO)[C@@H](O)[C@H](O)[C@H]1O [Phloridzin]
- Inhibition (%) (at 50 μM polyphenol): Ineffective
- Inhibition (%) (at 50 μM polyphenol, listed as phloridzin): completely ineffective

Structure (SMILES): O=c1cc(-c2ccccc2)oc2cc(O)ccc12 [7‐hydroxyflavone]
- Inhibition (%) (at 100 μM polyphenol): Ineffective (100 μM)

Second part, the compound after the results:

- IC50 (μM): 3.311 (3.047–3.598) μM
- IC50 (listed as orobol): 3.31 µM
- fold lower IC50 compared with luteolin (ratio of IC50 values): 2 fold
Structure (SMILES): O=c1c(-c2ccc(O)c(O)c2)coc2cc(O)cc(O)c12 [Orobol]

- Inhibition (%) (at 100 μM polyphenol): 63.2 (100 μM) %
Structure (SMILES): O=c1cc(-c2ccc(O)c(O)c2)oc2c(O)c(O)ccc12 [3′,4′,7,8‐tetrahydroxyflavone]

- Inhibition (%) (at 100 μM polyphenol): 100 (100 μM) %
Structure (SMILES): COc1ccc(-c2oc3cc(O)cc(O)c3c(=O)c2O)cc1O [Tamarixetin]

- IC50 (μM): 9.341 (7.749–11.26) μM
Structure (SMILES): O=c1c(O)c(-c2ccc(O)cc2)oc2cc(O)cc(O)c12 [Kaempferol]

- Inhibition (%) (at 100 μM polyphenol): 12.3 (100 μM) %
Structure (SMILES): O=C1c2c(O)cc(O)cc2O[C@H](c2ccc(O)c(O)c2)[C@H]1O [Taxifolin]

- Inhibition (%) (at 50 μM polyphenol): Ineffective
- Inhibition (%) (at 50 μM polyphenol, listed as hyperoside): completely ineffective
Structure (SMILES): O=c1c(O[C@@H]2O[C@H](CO)[C@H](O)[C@H](O)[C@H]2O)c(-c2ccc(O)c(O)c2)oc2cc(O)cc(O)c12 [Hyperoside]

- IC50 (μM): 0.16 (0.150–0.183) μM
Structure (SMILES): O=C(O[C@@H]1Cc2c(O)cc(O)cc2O[C@@H]1c1ccc(O)c(O)c1)c1cc(O)c(O)c(O)c1 [ECG, epicatechin gallate]

- IC50: 1.05 µM
- IC50 (μM): 1.053 (0.764–1.453) μM
- log IC50 (datapoint of Fig. 3B): 0.022
- fold lower IC50 compared with (+)‐catechin (ratio of IC50 values): 200 fold
Structure (SMILES): Oc1cc(O)c2cc(O)c(-c3ccc(O)c(O)c3)[o+]c2c1 [Cyanidin]

- Inhibition (%) (at 50 μM polyphenol): Ineffective
- Inhibition (%) (at 50 μM polyphenol, listed as hirsutrin): completely ineffective
Structure (SMILES): O=c1c(O[C@@H]2O[C@H](CO)[C@@H](O)[C@H](O)[C@H]2O)c(-c2ccc(O)c(O)c2)oc2cc(O)cc(O)c12 [Hirsutrin]

- IC50 (μM): 0.547 (0.527–0.568) μM
Structure (SMILES): COc1cc(O)c2c(=O)c(O)c(-c3ccc(O)c(O)c3)oc2c1 [Rhamnetin]

- Inhibition (%) (at 200 μM polyphenol (highest concentration tested)): Ineffective (200 μM)
- Inhibition (%) (at 200 μM polyphenol (highest concentration tested), listed as (−)‐epicatechin): not an inhibitor
- Inhibition (%) (at 200 μM polyphenol (highest concentration tested), listed as epicatechin): ineffective
Structure (SMILES): Oc1cc(O)c2c(c1)O[C@H](c1ccc(O)c(O)c1)[C@H](O)C2 [(−)‐Epicatechin]

- Inhibition (%) (at 50 μM polyphenol): 22%
Structure (SMILES): O=c1c(-c2ccc(O)cc2)coc2cc(O)cc(O)c12 [Genistein]

- IC50 (μM): 214.7 (178. 2–258.7) μM
- IC50 (listed as (+)‐catechin): 215 µM
Structure (SMILES): Oc1cc(O)c2c(c1)O[C@H](c1ccc(O)c(O)c1)[C@@H](O)C2 [(+)‐Catechin]

- IC50 (μM): 7.46 (6.592–8.446) μM
Structure (SMILES): O=c1cc(-c2ccc(O)c(O)c2)oc2cc(O)cc(O)c12 [Luteolin]

From paper PMC4973850, “Molecular structure‐function relationship of dietary polyphenols for inhibiting VEGF‐induced VEGFR‐2 activity” (Molecular Nutrition & Food Research, 2015)
